Experimental data as given in patent US20160129005A1, “ADENINE DERIVATIVES HAVING IMMUNOMODULATING ANTI-INFLAMMATORY AND ANALGESIC ACTIVITY” (MEDESTEA RESEARCH & PRODUCTION S.p.A., priority 2011, published 2016).

Columns and labels:
[1] = system: Male Sprague-Dawley rats; assay: Neuropathic pain: SNI model (lesion of the sciatic nerve); format: in vivo, rat
Description: We evaluated the effect of […] in a model of neuropathic pain: the model of lesion of the sciatic nerve. The characteristic feature of neuropathic pain is that both macroglia and microglia (the cells that support the neurons metabolically) can alter their phenotype (reactive gliosis) as a result of some traumatic-inflammatory peripheral events, duplicated in this model. These phenotypic and functional changes can become permanent and the perception of pain can continue even after its primary cause has disappeared. The cells react to the positive lesion by increasing the glial fibrillary acidic protein (GFAP) and the ionized calcium-binding adapter molecule (IBA1). Male Sprague-Dawley rats (250-300 g; Harlan, Italy) were divided into 5 groups.
Group I was treated with […] daily from day 1 to day 21; group II was treated daily with the drug from day 1 to day 7 and then again with a single dose on day 14; group III was treated with […] on day 1, day 7 and day 14; group IV was treated with only the vehicle and group V was submitted to a sham operation ([…]). […]
Behavioural tests were performed daily from day 0 to day 7 and then on alternate days until day 28. Mechanical allodynia was induced by von Frey filament stimulation and the onset of thermal hyperalgesia was measured using the Ugo Basile apparatus according to Hargreaves' method, 1988.

[2] = system: mice; assay: COPD: chronic smoke exposure (6 months), lung morphometry and histology; format: in vivo, mouse; conditions: smoke 6 months, 4 mg/kg i.p. before daily exposure
Procedure: The activity of […] was also tested in a model of chronic exposure, which is closer to the aetiology of the human disorder. The mice were exposed to the smoke of 3 cigarettes a day or air for 5 days a week for 6 months, and were treated 30 minutes before the daily exposure with […] 4 mg/kg i.p.
At the end of the 6 months, the mice were sacrificed and a morphometric and histologic examination was conducted on the lung tissue.
The mean interalveolar distance (Lm) and mean internal surface area of the lung (ISA) were measured, being parameters that are correlated with degeneration of lung tissue and with the resultant decrease in respiratory function.

[3] = system: Lewis rats; assay: Acute experimental autoimmune encephalomyelitis (MBP/CFA); format: in vivo, rat; conditions: for peak of neurologic damage (neuroclinical score 0-5): vehicle peak 3 (day 13)
Procedure: We investigated whether treatment with […], at the onset of the acute form of experimental autoimmune encephalitis (EAE), the murine model of human multiple sclerosis, could induce a functional recovery.
The motor and sensory deficits were classified according to previously assigned “neuronal” clinical scores.
Adult female Lewis rats (200-250 g) were immunized with an intradermal injection, in the hind limbs, of […] of myelin basic protein (MBP) dissolved in 50 microlitres of emulsified saline solution in 50 microlitres of complete Freund adjuvant (CFA).
Starting from the fifth day post-inoculation, the rats were treated daily with […] (0.1 or 1 mg/kg per os) or with the placebo (vehicle).
The animals were monitored daily until day 21 for clinical symptoms; the range of neuroclinical scores extended from 0 (no neurologic symptom) up to a maximum of 5 (complete paralysis of all legs or death).
Inoculation with the MBP/CFA emulsion led to a very evident loss of body weight; this was not changed by the treatment with Immuflam. The animals were divided into three groups of 15: group 1 Immuflam 0.1 mg/kg, group 2 Immuflam 1 mg/kg, group 3 vehicle. They were all treated daily per os from day 5 until sacrifice.

[4] = system: mice; assay: Visceral pain: acetic acid model; format: in vivo, mouse; conditions: 4 mg/kg intraperitoneally; FIG. 20
Procedure: We verified the effect of […] on a model of visceral pain. 30 mice were divided into two groups of 15: one group received […] 4 mg/kg intraperitoneally while the other group was treated with only the pharmaceutical vehicle. After the pre-treatment injection, 0.6% acetic acid was administered as a bolus injection 0.3 ml IP. The mice were put in individual observation chambers for assessing, after a period of 20 minutes, the number of contractions induced in each animal following injection of acetic acid. The count started 5 minutes after administration of acetic acid.

[5] = system: murine neuroblastoma; conditions: tissue cultures; Mirkin et al., Cancer Research 47, 1987; cited from earlier work
[6] = system: male Fischer inbred rats; assay: Model of arthritis: complete Freund adjuvant paw inflammation, plantar test (Hargreaves); format: in vivo, rat
Procedure: […] was tested for possible antinociceptive and anti-inflammatory activity in a murine model of arthritis.
Unilateral inflammation of the posterior plantar pad of the rat (male Fischer inbred rats) was induced with a local injection of complete Freund adjuvant.
[…], 4 mg/kg, was administered intraperitoneally.
The rats were put in a transparent plastic chamber and were left to acclimatize for 5 minutes before the test.
Thermal stimulus, applied to the surface of the plantar pads of the rats, was produced by a halogen lamp (64607 OSRAM) of 8 V-50 W, through the plastic box; the diameter of the radiant beam measured about 12 mm. The time for withdrawal of the animal's right plantar pad was measured before and after injection of […].
A comparison was conducted on the anti-hyperalgesic and anti-inflammatory effect of a cortisone derivative, methylprednisolone acetate, administered intraperitoneally (5 mg/kg).

[7] = system: mice with the R117H CFTR(CF) mutation and wild-type (WT) mice; assay: Cystic fibrosis: intratracheal LPS in R117H CFTR and WT mice; format: in vivo, mouse
Procedure: For the experiments, 32 mice were used with the R117H CFTR(CF) mutation, responsible for the onset of the inflammatory disorder, and 18 wild-type (WT) mice with a genetic background of the C57BL/6 type.
The trachea was then intubated with a MicroSprayer (PennCentury), capable of vaporizing the drug as aerosol at a concentration of 25 μl of […] 300 μM or of vehicle. The mice were weighed daily.
On day 4, all the mice received the inflammatory stimulus (1 μg of LPS) together with […] or vehicle; separate experiments were conducted, inducing only the inflammatory stimulus in the mice. About 24 hours after administration of LPS, the mice were sacrificed and samples of BALF were collected, from which the cellular component was isolated, and was analysed under the microscope for characterizing its leukocyte phenotype.

For `C=C(C=O)OC(C=O)n1cnc2c(N)ncnc21` (stereo not drawn) [2-[1-(6-aminopurin-9-yl)-2-oxoethoxy]prop-2-enal], the “pain (mechanical allodynia, thermal hyperalgesia)” value ([1]; 6 mg/kg and 30 mg/kg i.p., from first day until 7 days after end of treatment, FIGS. 10-15) was “reduces pain significantly”, the “expression of the proteins of reactive gliosis Ibal and GFAP (immunohistochemical analysis)” value ([1]; animals treated daily) was “returns almost to the normal levels” and the “ISA (mean internal surface area of the lung)” value [2] was 1153 ± 59 cm^2. The “Lm (mean interalveolar distance)” value [2] was 36.3 ± 1.1 μm, the “clinical scores vs vehicle groups” value ([3]; between day 12 and day 15, FIG. 4) was “significant differences” and the “peak of neurologic damage (neuroclinical score 0-5)” value ([3]; group 1, 0.1 mg/kg per os daily from day 5) was 2.3. For the same molecule, the “peak of neurologic damage (neuroclinical score 0-5)” value ([3]; group 2, 1 mg/kg per os daily from day 5) was 1.5, the “visceral pain (number of contractions after acetic acid)” value [4] was “effective in the treatment of visceral pain” and the cytotoxic activity [5] was “cytotoxic activity”. For the same molecule, the “time for withdrawal of the plantar pads (thermal stimulus)” value ([6]; 4 mg/kg intraperitoneally, to levels comparable to baseline, FIG. 7) was “significantly increases the time for withdrawal of the plantar pads”, the “action relative to methylprednisolone acetate” value ([6]; IMMUFLAM 4 mg/kg i.p. vs methylprednisolone acetate 5 mg/kg i.p.) was “more effective action” and the “reduction in concentrations of IL-1β, IL-6, TNFα and the murine analogue of IL-8 in BAL” value ([7]; CF and WT mice, FIGS. 42B and C) was 56%-83%. The “decrease in neutrophil percentage relative to vehicle” value ([7]; CF mice, intratracheal LPS, 25 μl of 300 μM aerosol, p<0.001, FIG. 42A) was 60%, the “decrease in the percentage of neutrophils” value ([7]; WT mice, intratracheal LPS, compared to 89% for vehicle, p<0.01) was 47% and the body weight ([7]; within first 24 hours, vehicle lost 4-8%, FIG. 41) was “no change in their body weight”.
